Tests used:
Pgk1 [1] = target: T1, Pgk1 (Homo sapiens, UniProt P00558); test: Affinity for Pgk1 protein (Biacore T200); type: binding
T1 sequence (P00558 1-417): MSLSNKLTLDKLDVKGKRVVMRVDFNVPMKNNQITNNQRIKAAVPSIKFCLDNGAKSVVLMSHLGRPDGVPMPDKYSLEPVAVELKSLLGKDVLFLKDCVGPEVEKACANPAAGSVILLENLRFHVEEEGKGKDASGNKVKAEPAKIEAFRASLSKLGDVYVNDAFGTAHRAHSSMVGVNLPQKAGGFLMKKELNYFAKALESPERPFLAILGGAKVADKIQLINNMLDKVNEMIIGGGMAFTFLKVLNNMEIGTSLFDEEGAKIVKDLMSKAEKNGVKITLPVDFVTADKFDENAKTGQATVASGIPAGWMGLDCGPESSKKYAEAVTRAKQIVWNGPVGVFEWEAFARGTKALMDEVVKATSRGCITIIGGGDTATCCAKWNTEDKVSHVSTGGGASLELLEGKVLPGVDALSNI
Experimental: Example 30: Determination of Affinities of Compounds for Pgk1 Protein
Purified Pgk1 protein (with a concentration of 1 mg/mL) was immobilized on a Biacore T200 chip. […] The obtained curves can calculate parameters such as affinity and Rmax.

SK-N-SH cells = test: Dose-effect relationship on cellular ATP levels in cultured SK-N-SH cells; type: cell-based, human
Experimental: SK-N-SH cells were seeded in a 6-well plate at a density of 6×10^4 per well. Cells were cultured for 12 hours under 5% O2, and the drug was added. Cells were harvested after 48 hours. Cellular ATP levels were measured using a Promega ATP assay kit. The experiment was repeated 5 times to 7 times.

db/db mice [2] = test: Long-term hypoglycemic and weight-loss effects in db/db mice, drinking water; type: in vivo; conditions: drinking water 7 days
Experimental: The hypoglycemic effect of the novel isoquinoline derivatives via intraperitoneal injection lasted no more than 6 hours. To determine the long-term hypoglycemic effect of T6, T6 was added to drinking water and administered to mice continuously for one week.
After 7 days of treatment, changes in glycated hemoglobin (HbA1c) level, insulin level in mouse blood, and body weight, were measured.

Pgk1 [3] = target: T1, Pgk1; test: T6 binding affinity with Pgk1 by SPR; conditions: steady-state affinity model
Text: Surface plasmon resonance (SPR) was used to measure the interaction between the small molecule T6 and Pgk1. Equilibrium binding responses at increasing T6 concentrations were fitted using a steady-state affinity model. In FIG. 9, diamonds represent the measured response units (RU), and the black curve indicates the fitted binding isotherm. […] The vertical line marks the calculated KD value.

primary mouse neurons = test: Cellular status and glucose metabolism-related gene expression in primary mouse neurons; type: cell-based; conditions: normoxic, 72 h, T6 10 PM (so in the source)
Text: In FIG. 10, A) representative bright-field images show the cellular status of primary neurons after treatment. […] The analyzed genes included G6PD, HK2, LDHA, PDK1, PGK1, and SLC2A1/GLUT1. […] TZ treatment produced a similar but generally more moderate metabolic gene-response profile, including increased LDHA, PDK1, and SLC2A1/GLUT1 expression. […] Error bars indicate variation among measurements. […] The results support the use of T6 or related compounds as agents capable of regulating neuronal metabolic status and glucose metabolism-associated pathways.

SKN cells (Pgk1 shRNA) = test: Mitochondrial respiration in SKN cells with Pgk1 shRNA (Seahorse); type: cell-based
Experimental: SKN cells were transduced with Pgk1 shRNA to reduce endogenous Pgk1 expression and were subsequently treated with vehicle control or compound T6. […] GAPDH was used as a loading control; B) mitochondrial respiration was assessed by Seahorse extracellular flux analysis and is expressed as oxygen consumption rate (OCR; pmol/min/10^4 cells). Oligomycin, FCCP, and rotenone plus antimycin were sequentially added to evaluate basal respiration, ATP-linked respiration, maximal respiratory capacity, and non-mitochondrial respiration. […] In contrast, Pgk1 knockdown reduced mitochondrial respiratory activity and diminished the respiration-enhancing effect of T6. […] Data are presented as mean±SD, with individual points representing replicate measurements. Statistical significance is indicated as **P<0.001; ns, not significant. […] The data support Pgk1 as a functional cellular target mediating the metabolic activity of T6.

SOD1G93A transgenic mice = test: High-copy-number SOD1G93A ALS model mice, body weight and survival; type: in vivo; conditions: 0.2 mg/kg i.p. once daily from 80 days of age
Experimental: High-copy-number SOD1G93A transgenic mice, a genetic model of amyotrophic lateral sclerosis (ALS), were treated with compound T6 or vehicle control beginning at 80 days of age. T6 was administered once daily by intraperitoneal injection at 0.2 mg/kg, and control animals received PBS. Disease-associated slowing of movement was observed beginning at approximately 90 days of age. […] The control group included 7 mice, and the T6-treated group included 5 mice. T6 treatment shifted the survival curve to the right, indicating an extension of survival after initiation of treatment (survival analysis, p=0.072).

db/db mice [4] = test: Chronic treatment assay, HbA1c in db/db mice (ELISA); type: in vivo; conditions: drinking water 2 weeks, particularly T6 1.5 mg/kg, vs untreated control
Experimental: The db/db mice were used to evaluate the glucose-lowering activity of compound T6 in comparison with reference metabolic agents (TZ 0.5 mg/Kg, liraglutide 0.6 mg/Kg, T6 0.5 mg/Kg). In FIG. 15, A) for the acute glucose-response assay, drugs were administered to non-fasted db/db mice. Immediately after drug administration (s. c.), mice were deprived of food and water, and blood glucose levels were measured from tail blood samples 2 h later. The relative percentage change in blood glucose was calculated by comparing glucose levels before and after treatment in the same animal. […] HbA1c levels were then measured using a glycated hemoglobin A1c enzyme-linked immunosorbent assay, also referred to as a mouse HbA1c ELISA assay. […] Data are presented as mean±error bars, with individual circles representing individual animals. Statistical significance is indicated as P<0.001 (**) and P<0.0001 (***).

Nc1nc(N2CCN(C(=O)[C@H]3CCCO3)CC2)cc2cc3c(cc12)OCC3 [Compound T6]
Kd (Pgk1 [1]; + saturated ADP, read-out: Affinity (KD) in the presence of ADP): > 1000 µM | Rmax (Pgk1 [1]; drug alone, amount of small-molecule drug bound): 106 RU | Inhibition of cell growth (SK-N-SH cells; 50 μM, SK-N-SH cells): a tendency to inhibit cell growth | minimal effective concentration (SK-N-SH cells; Homo sapiens, 48 h, SK-N-SH cells, read-out: Biologically effective concentration): ~10 µM | Optimal dose for cellular ATP levels (SK-N-SH cells; doses 5, 10 and 50 μM, 48 hours, 5% O2): 50 µM | Glycated hemoglobin (HbA1c) level (db/db mice [2]; metformin 350 mg/kg, terazosin 0.3 mg/kg, T6 1.5 mg/kg): decrease in glycated hemoglobin (HbA1c) level | Long-term hypoglycemic effect versus terazosin and metformin (db/db mice [2]; long-term oral administration): better hypoglycemic effect than that of terazosin and metformin | Estimated Rmax (Pgk1 [3]): 7.799 RU | Kd (Pgk1 [3]; read-out: KD (approximately)): ~22.4 µM | Kd (Pgk1 [3]; read-out: KD (fitted dissociation constant)): 22.4 µM | Relative mRNA expression of G6PD (primary mouse neurons; control = 1.0): increased | Neuronal cellular morphology/status (primary mouse neurons; TZ 10 μM): detectable changes in neuronal cellular morphology/status | Relative mRNA expression of HK2 (primary mouse neurons; TZ 10 μM, control = 1.0): not increased | Relative mRNA expression of LDHA (primary mouse neurons; TZ 10 μM, control = 1.0): increased | Relative mRNA expression of PDK1 (primary mouse neurons; TZ 10 μM, control = 1.0): increased | Relative mRNA expression of PGK1 (primary mouse neurons; TZ 10 μM, control = 1.0): only modestly changed | Relative mRNA expression of SLC2A1/GLUT1 (primary mouse neurons; TZ 10 μM, control = 1.0): increased | Basal respiration and maximal respiration (OCR), Pgk1 shRNA cells (SKN cells (Pgk1 shRNA); Pgk1 shRNA-expressing SKN cells): no significant increase | Basal respiration and maximal respiration (OCR), control cells (SKN cells (Pgk1 shRNA); control SKN cells): significantly increased both basal respiration and maximal respiration | Survival (SOD1G93A transgenic mice; vs PBS): delayed mortality | Body weight (SOD1G93A transgenic mice; 81 to 123 days of age): maintained body weight more effectively | HbA1c level (db/db mice [4]): reduced HbA1c levels

Source: US20260355182A1, “ISOQUINOLINE DERIVATIVE, SYNTHESIS METHOD THEREFOR, AND USE THEREOF” (Harbin Gloria Pharmaceuticals Co., Ltd., priority 2023, published 2026)
